What all share (assay type): functional
For experiment [1], the system named is Mycobacterium tuberculosis. As to the kind of experiment: Antimycobacterial activity against Mycobacterium tuberculosis isolate MA03 expressing wild-type rpoB gene by resazurin microtiter assay. On the technique in general: The colour change of resazurin is a common sign of viable cells or microbes.
Experiment [2] relates to Mycobacterium tuberculosis. As to the kind of experiment: Antimycobacterial activity against Mycobacterium tuberculosis H37Rv ATCC 27294 expressing wild-type rpoB gene by resazurin microtiter assay.
The test system of experiment [3] is Mycobacterium tuberculosis. As to the kind of experiment: Antimycobacterial activity against Mycobacterium tuberculosis isolate 359 expressing wild-type rpoB gene by resazurin microtiter assay.
For experiment [4], the system named is Mycobacterium tuberculosis. Briefly: Antimycobacterial activity against Mycobacterium tuberculosis isolate 353 expressing wild-type rpoB gene by resazurin microtiter assay.
Experiment [5] concerns Mycobacterium tuberculosis. As to the kind of experiment: Antimycobacterial activity against Mycobacterium tuberculosis isolate 361 expressing wild-type rpoB gene by resazurin microtiter assay.

Structures are written as SMILES. Converted amounts (≈) assume the structure as drawn.

For the molecule `CO[C@H]1/C=C/O[C@@]2(C)Oc3c(C)c(O)c4c(c3[C@H]2O)C2=NC3(CCN(CC(C)C)CC3)N(C(C)=O)C2=C(NC(=O)/C(C)=C\C=C\[C@H](C)[C@H](O)[C@@H](C)[C@@H](O)[C@@H](C)[C@H](OC(C)=O)[C@@H]1C)C4=O`, the MIC in experiment [1] was less than 0.06 µg/mL; in experiment [2], 0.06 µg/mL (≈ 0.0673 µM); in experiment [3], less than 0.06 µg/mL; in experiment [4] it was greater than 2 µg/mL; in experiment [5] it was less than 0.06 µg/mL.

`CO[C@H]1/C=C/O[C@@]2(C)Oc3c(C)c(O)c4c(O)c(c(/C=N/N5CCN(C)CC5)c(O)c4c3C2=O)NC(=O)/C(C)=C\C=C\[C@H](C)[C@H](O)[C@@H](C)[C@@H](O)[C@@H](C)[C@H](OC(C)=O)[C@@H]1C` [RIFAMPIN]: the minimum inhibitory concentration (MIC) was less than 0.06 µg/mL in experiment [1]; 0.06 µg/mL (≈ 0.0729 µM) in experiment [2]; 0.12 µg/mL (≈ 0.146 µM) in experiment [3]; greater than 2 µg/mL in experiment [4]; less than 0.06 µg/mL in experiment [5].

In the case of `CO[C@H]1/C=C/O[C@@]2(C)Oc3c(C)c(O)c4c(c3[C@H]2O)C2=NC3(CCN(CC(C)C)CC3)NC2=C(NC(=O)/C(C)=C\C=C\[C@H](C)[C@H](O)[C@@H](C)[C@@H](O)[C@@H](C)[C@H](O)[C@@H]1C)C4=O`, the MIC in experiment [1] was less than 0.06 µg/mL; in experiment [2], 0.06 µg/mL (≈ 0.0743 µM); in experiment [3], 0.25 µg/mL (≈ 0.31 µM); in experiment [4], 2 µg/mL (≈ 2.48 µM); in experiment [5], 0.12 µg/mL (≈ 0.149 µM).

As to `CO[C@H]1/C=C/O[C@@]2(C)Oc3c(C)c(O)c4c(c3C2=O)C2=NC3(CCN(CC(C)C)CC3)NC2=C(NC(=O)/C(C)=C\C=C\[C@H](C)[C@H](O)[C@@H](C)[C@@H](O)[C@@H](C)[C@H](OC(C)=O)[C@@H]1C)C4=O` [RIFABUTIN], the MIC was less than 0.06 µg/mL in experiment [1]; 0.06 µg/mL (≈ 0.0708 µM) in experiment [2]; less than 0.06 µg/mL in experiment [3]; 0.12 µg/mL (≈ 0.142 µM) in experiment [4]; less than 0.06 µg/mL in experiment [5].

With `C=CCCCCCCCCC(=O)N1C2=C3NC(=O)/C(C)=C\C=C\[C@H](C)[C@H](O)[C@@H](C)[C@@H](O)[C@@H](C)[C@H](OC(C)=O)[C@H](C)[C@@H](OC)/C=C/O[C@@]4(C)Oc5c(C)c(O)c(c(c5C4=O)C2=NC12CCN(CC(C)C)CC2)C3=O`, the MIC in experiment [1] is less than 0.06 µg/mL; in experiment [2], 0.06 µg/mL (≈ 0.0592 µM); in experiment [3], less than 0.06 µg/mL; in experiment [4], greater than 2 µg/mL; in experiment [5], less than 0.06 µg/mL.

As to `CCCCCCCCCCCCCCCC(=O)N1C2=C3NC(=O)/C(C)=C\C=C\[C@H](C)[C@H](O)[C@@H](C)[C@@H](O)[C@@H](C)[C@H](OC(C)=O)[C@H](C)[C@@H](OC)/C=C/O[C@@]4(C)Oc5c(C)c(O)c(c(c5C4=O)C2=NC12CCN(CC(C)C)CC2)C3=O`, the minimum inhibitory concentration (MIC) was less than 0.06 µg/mL in experiment [1]; 0.06 µg/mL (≈ 0.0553 µM) in experiment [2]; less than 0.06 µg/mL in experiment [3]; greater than 2 µg/mL in experiment [4]; less than 0.06 µg/mL in experiment [5].

With `CO[C@H]1/C=C/O[C@@]2(C)Oc3c(C)c(O)c4c(c3C2=O)C2=NC3(CCN(CC(C)C)CC3)N(C(C)=O)C2=C(NC(=O)/C(C)=C\C=C\[C@H](C)[C@H](O)[C@@H](C)[C@@H](O)[C@@H](C)[C@H](OC(C)=O)[C@@H]1C)C4=O`, the MIC in experiment [1] was less than 0.06 µg/mL; in experiment [2], 0.06 µg/mL (≈ 0.0675 µM); in experiment [3], less than 0.06 µg/mL; in experiment [4], 0.12 µg/mL (≈ 0.135 µM); in experiment [5] it was less than 0.06 µg/mL.

On to `CO[C@H]1/C=C/O[C@@]2(C)Oc3c(C)c(O)c4c(c3C2=O)C2=NC3(CCN(CC(C)C)CC3)NC2=C(NC(=O)/C(C)=C\C=C\[C@H](C)[C@H](O)[C@@H](C)[C@@H](O)[C@@H](C)[C@H](O)[C@@H]1C)C4=O`, for which the minimal inhibitory concentration (MIC) in experiment [1] is less than 0.06 µg/mL; in experiment [2], 0.06 µg/mL (≈ 0.0745 µM); in experiment [3], less than 0.06 µg/mL; in experiment [4], greater than 2 µg/mL; in experiment [5], less than 0.06 µg/mL.

One may read the MIC as the least concentration at which growth counts as inhibited. Read a low MIC as inhibition by little substance.

Source of the values: ChEMBL document CHEMBL1926527, “Pharmacophore insights into rpoB gene mutations in Mycobacterium tuberculosis rifampicin resistant isolates” (2012).
